Laboratory results published in patent publication US20260207522A1, “YEAST CELL WALL PARTICLE ENCAPSULATION OF BIODEGRADABLE PRO-PAYLOADS” (UNIVERSITY OF MASSACHUSETTS, priority 2018, published 2026).

Tests used:
[1] = loading into yeast cell wall particles; type: physicochemical
Procedure: To create encapsulated pro-payloads, water-insoluble pro-payloads are dissolved in a suitable solvent compatible with the glucan particles (e.g., dimethylsulfoxide, methanol, etc.). After loading the pro-payloads into glucan shells, the glucan particle pro-payload is processed to remove the solvent.
The pro-payload CS-AcA was dissolved in a suitable solvent and combined with extracted yeast cell wall particles to create encapsulated CS-AcA.
The pro-payload INH-LA was dissolved in a suitable solvent and combined with extracted yeast cell wall particles to create encapsulated INH-LA.

[2] = in vitro release assay of naproxen from YCWPs; type: physicochemical; details: pH 7
Procedure: The pro-payload Nap-An was dissolved in a suitable solvent and combined with extracted yeast cell wall particles to create encapsulated Nap-An.

[3] = system: H. pylori; details: concentration of 2 mg/L; cited from earlier work
[4] = system: C. albicans; details: Bard et al.; cited from earlier work
[5] = system: S. cerevisiae; details: Bard et al.; cited from earlier work

Row | Compound | amount loaded into yeast cell wall particles [1] | other results
1 | N[C@@H]1CON=C1O [CS, cycloserine] | ≤ 14% | –
2 | NNC(=O)c1ccncc1 [INH, isoniazid] | 0% | –
3 | CCCCCCCCCCCC(=O)NNC(=O)c1ccncc1 [INH-LA, isoniazid lauric acid] | up to 89% | –
4 | COc1ccc2cc(C(C)C(=O)OC(=O)C(C)c3ccc4cc(OC)ccc4c3)ccc2c1 (stereo not shown) [Nap-An, naproxen anhydride] | – | 50% release time (RT50) [2]: greater than 13.5 hours
5 | CC(C)=CCC/C(C)=C/CO [geraniol] | – | in vitro growth of H. pylori [3]: inhibited; growth of C. albicans strains [4]: inhibit the growth; growth of S. cerevisiae strains [5]: inhibit the growth
6 | cycloserine acetylacetone [CS-AcA] | ≤ 70% | –
7 | doxorubicin-isoniazid [Dox-INH] | up to 61% | –
8 | doxorubicin-isophorone diisocyanate [Dox-IPDI] | up to 92% | –
